Results reported in publication PMC6405326 (ACS chemical neuroscience, 2018).

Experiments:
[1] = system: KOR-DOR and KOR-MOR heterodimers; conditions: HEK293 cells; cited from earlier work
[2] = cited from earlier work
[3] = molecular target: T1, mouse MOR (Mus musculus, UniProt P42866); experiment: [35S]-GTPγS functional assay, MOR-CHO membranes; conditions: for Emax: read-out: MOR [35S]-GTPγS assay % Emax of DAMGO, relative to 3 μM DAMGO; for MOR [35S]-GTPγS assay % Emax of DAMGO: relative to 3 μM DAMGO
[4] = system: male Swiss Webster mice; experiment: Warm-water tail immersion assay, antinociceptive effect; conditions: 10 mg/kg s.c., tested 20 min after injection, 56 °C water
[5] = molecular target: T1, mouse MOR; experiment: Competitive radioligand binding assay, MOR
[6] = molecular target: mouse KOR (Mus musculus, UniProt P33534); experiment: Competitive radioligand binding assay, KOR
[7] = molecular target: mouse DOR (Mus musculus, UniProt P32300); experiment: Competitive radioligand binding assay, DOR
[8] = system: male Swiss Webster mice; experiment: Warm-water tail immersion assay, antagonism of morphine's antinociceptive effect; conditions: dose-response study, s.c.

SMILES | Activation of KOR-DOR and KOR-MOR heterodimers [1] | Antinociception [2] | Aversive effects in the conditioned place preference assay [2] | Tolerance and dependence [2] | EC50 [3] | MOR [35S]-GTPγS assay EC50 ([3]; mMOR-CHO membranes) | Emax [3] | MOR [35S]-GTPγS assay % Emax of DAMGO [3] | Antinociceptive effect (% MPE) ([4]; listed as INTA) | Ki [5] | Ki [6] | Ki [7] | Antinociceptive effect (% MPE) [4] | AD50 (95% CL), opioid antagonist effect against morphine [8]
O=C(N[C@@H]1CC[C@@]2(O)[C@H]3Cc4ccc(O)c5c4[C@@]2(CCN3CC2CC2)[C@H]1O5)c1cc2ccccc2[nH]1 [Compound 1, 17-Cyclopropylmethyl-3,14β-dihydroxy-4,5α-epoxy-6β-(indole-2-carboxamido)morphinan] | activated | potent antinociception | no aversive effects | devoid of tolerance and dependence | 0.21 ± 0.01 nM | subnanomolar potency | 92.4 ± 2.81% | full agonist | potent antinociception | 0.29 ± 0.04 nM | 0.18 nM | 1.54 ± 0.47 nM | – | –
O=C(N[C@@H]1CC[C@@]2(O)[C@H]3Cc4ccc(O)c5c4[C@@]2(CCN3CC2CC2)[C@H]1O5)c1c[nH]c2ccccc12 [Compound 2, 17-Cyclopropylmethyl-3,14β-dihydroxy-4,5α-epoxy-6β-(indole-3-carboxamido)morphinan] | – | – | – | – | 0.22 ± 0.07 nM | – | 79.5 ± 7.41% | high MOR efficacies | – | 0.19 ± 0.02 nM | – | 7.17 ± 1.23 nM | low % MPE values | –
O=C(N[C@@H]1CC[C@@]2(O)[C@H]3Cc4ccc(O)c5c4[C@@]2(CCN3CC2CC2)[C@H]1O5)c1cccc2[nH]ccc12 [Compound 3, 17-Cyclopropylmethyl-3,14β-dihydroxy-4,5α-epoxy-6β-(indole-4-carboxamido)morphinan] | – | – | – | – | 8.16 ± 4.72 nM | – | – | – | – | 0.24 ± 0.03 nM | – | 49.8 ± 12.7 nM | – | –
O=C(N[C@@H]1CC[C@@]2(O)[C@H]3Cc4ccc(O)c5c4[C@@]2(CCN3CC2CC2)[C@H]1O5)c1ccc2[nH]ccc2c1 [Compound 4, 17-Cyclopropylmethyl-3,14β-dihydroxy-4,5α-epoxy-6β-(indole-5-carboxamido)morphinan] | – | – | – | – | 2.98 ± 1.25 nM | – | 22.3 ± 3.5% | – | – | 0.26 ± 0.04 nM | 0.51 ± 0.04 nM | 17.7 ± 4.78 nM | – | –
O=C(N[C@@H]1CC[C@@]2(O)[C@H]3Cc4ccc(O)c5c4[C@@]2(CCN3CC2CC2)[C@H]1O5)c1ccc2cc[nH]c2c1 [Compound 5, 17-Cyclopropylmethyl-3,14β-dihydroxy-4,5α-epoxy-6β-(indole-6-carboxamido)morphinan] | – | – | – | – | 0.19 ± 0.02 nM | – | 71.8 ± 4.37% | high MOR efficacies | – | 0.25 ± 0.04 nM | 0.17 ± 0.01 nM | 6.23 ± 0.83 nM | low % MPE values | –
O=C(N[C@@H]1CC[C@@]2(O)[C@H]3Cc4ccc(O)c5c4[C@@]2(CCN3CC2CC2)[C@H]1O5)c1cccc2cc[nH]c12 [Compound 6, 17-Cyclopropylmethyl-3,14β-dihydroxy-4,5α-epoxy-6β-(indole-7-carboxamido)morphinan] | – | – | – | – | – | – | – | 37.94 ±5.85% | – | – | 0.52 ± 0.09 nM | 30.4 ± 9.49 nM | – | –
O=C(Cc1c[nH]c2ccccc12)N[C@@H]1CC[C@@]2(O)[C@H]3Cc4ccc(O)c5c4[C@@]2(CCN3CC2CC2)[C@H]1O5 [Compound 7, 17-Cyclopropylmethyl-3,14β-dihydroxy-4,5α-epoxy-6β-[2-(indol-3-yl)acetamido)morphinan] | – | – | – | – | 1.44 ± 0.75 nM | – | 48.3 ± 4.45% | – | – | 0.24 ± 0.03 nM | – | 37 ± 1.21 nM | – | –
O=C(CCc1c[nH]c2ccccc12)N[C@@H]1CC[C@@]2(O)[C@H]3Cc4ccc(O)c5c4[C@@]2(CCN3CC2CC2)[C@H]1O5 [Compound 8, 17-Cyclopropylmethyl-3,14β-dihydroxy-4,5α-epoxy-6β-[3-(indol-3-yl)propanamido)morphinan] | – | – | – | – | 1.73 ± 1.1 nM | – | 45.1 ± 5.18% | – | – | 0.17 ± 0.01 nM | 0.39 ± 0.05 nM | 77.1 ± 28.3 nM | – | –
O=C(CCCc1c[nH]c2ccccc12)N[C@@H]1CC[C@@]2(O)[C@H]3Cc4ccc(O)c5c4[C@@]2(CCN3CC2CC2)[C@H]1O5 [Compound 9, 17-Cyclopropylmethyl-3,14β-dihydroxy-4,5α-epoxy-6β-[4-(indol-3-yl)butanamido)morphinan] | – | – | – | – | 1.04 ± 0.17 nM | – | – | 36.29 ±4.11% | – | 0.2 ± 0.03 nM | – | 25.3 ± 4.34 nM | – | –
O=C(N[C@H]1CC[C@@]2(O)[C@H]3Cc4ccc(O)c5c4[C@@]2(CCN3CC2CC2)[C@H]1O5)c1cc2ccccc2[nH]1 [Compound 10, 17-Cyclopropylmethyl-3,14β-dihydroxy-4,5α-epoxy-6α-(indole-2-carboxamido)morphinan] | – | – | – | – | 6.75 ± 3.2 nM | – | 36.9 ± 2.4% | – | – | 0.36 ± 0.03 nM | 0.93 ± 0.13 nM | 14.2 ± 2.78 nM | – | –
O=C(N[C@H]1CC[C@@]2(O)[C@H]3Cc4ccc(O)c5c4[C@@]2(CCN3CC2CC2)[C@H]1O5)c1c[nH]c2ccccc12 [Compound 11, 17-Cyclopropylmethyl-3,14β-dihydroxy-4,5α-epoxy-6α-(indole-3-carboxamido)morphinan] | – | – | – | – | 1 ± 0.13 nM | – | 33.3 ± 3.51% | – | – | 0.29 ± 0.04 nM | 0.98 ± 0.13 nM | 10.5 ± 2.89 nM | – | –
O=C(N[C@H]1CC[C@@]2(O)[C@H]3Cc4ccc(O)c5c4[C@@]2(CCN3CC2CC2)[C@H]1O5)c1cccc2[nH]ccc12 [Compound 12, 17-Cyclopropylmethyl-3,14β-dihydroxy-4,5α-epoxy-6α-(indole-4-carboxamido)morphinan] | – | – | – | – | 4.99 ± 2.19 nM | – | – | 28.90 ±0.95% | – | 0.26 ± 0.04 nM | – | 9.26 ± 2.83 nM | – | –
O=C(N[C@H]1CC[C@@]2(O)[C@H]3Cc4ccc(O)c5c4[C@@]2(CCN3CC2CC2)[C@H]1O5)c1ccc2[nH]ccc2c1 [Compound 13, 17-Cyclopropylmethyl-3,14β-dihydroxy-4,5α-epoxy-6α-(indole-5-carboxamido)morphinan] | – | – | – | – | 1.55 ± 0.08 nM | – | 32.2 ± 1.26% | – | – | 0.76 ± 0.11 nM | 3.45 ± 0.99 nM | 26.7 ± 7.72 nM | – | –
O=C(N[C@H]1CC[C@@]2(O)[C@H]3Cc4ccc(O)c5c4[C@@]2(CCN3CC2CC2)[C@H]1O5)c1ccc2cc[nH]c2c1 [Compound 14, 17-Cyclopropylmethyl-3,14β-dihydroxy-4,5α-epoxy-6α-(indole-6-carboxamido)morphinan] | – | – | – | – | 6.06 ± 1.25 nM | – | 26.6 ± 0.66% | – | – | 0.43 ± 0.05 nM | 1.63 ± 0.28 nM | 12.8 ± 3.36 nM | – | –
O=C(N[C@H]1CC[C@@]2(O)[C@H]3Cc4ccc(O)c5c4[C@@]2(CCN3CC2CC2)[C@H]1O5)c1cccc2cc[nH]c12 [Compound 15, 17-Cyclopropylmethyl-3,14β-dihydroxy-4,5α-epoxy-6α-(indole-7-carboxamido)morphinan] | – | – | – | – | – | – | – | – | – | – | – | – | – | 2.07 (0.40−10.74) mg/kg
O=C(Cc1c[nH]c2ccccc12)N[C@H]1CC[C@@]2(O)[C@H]3Cc4ccc(O)c5c4[C@@]2(CCN3CC2CC2)[C@H]1O5 [Compound 16, 17-Cyclopropylmethyl-3,14β-dihydroxy-4,5α-epoxy-6α-[2-(indol-3-yl)acetamido)morphinan] | – | – | – | – | 4.75 ± 0.31 nM | – | 34.1 ± 0.97% | – | – | 0.84 ± 0.12 nM | 3.14 ± 0.45 nM | 9.17 ± 2.67 nM | – | –
O=C(CCc1c[nH]c2ccccc12)N[C@H]1CC[C@@]2(O)[C@H]3Cc4ccc(O)c5c4[C@@]2(CCN3CC2CC2)[C@H]1O5 [Compound 17, 17-Cyclopropylmethyl-3,14β-dihydroxy-4,5α-epoxy-6α-[3-(indol-3-yl)propanamido)morphinan] | – | – | – | – | 2.09 ± 0.19 nM | – | 41.5 ± 6.14% | – | – | 0.44 ± 0.04 nM | 1.36 ± 0.18 nM | 25.1 ± 6.83 nM | – | –
O=C(CCCc1c[nH]c2ccccc12)N[C@H]1CC[C@@]2(O)[C@H]3Cc4ccc(O)c5c4[C@@]2(CCN3CC2CC2)[C@H]1O5 [Compound 18, 17-Cyclopropylmethyl-3,14β-dihydroxy-4,5α-epoxy-6α-[4-(indol-3-yl)butanamido)morphinan] | – | – | – | – | 1.89 ± 1.04 nM | – | 54.9 ± 6.35% | – | – | 0.29 ± 0.04 nM | 0.15 ± 0.03 nM | 6.73 ± 0.4 nM | – | –
